{
  "source": "patent US10064865B2",
  "about": "“Composition comprising phosphodiesterase type 5 inhibitor for inhibiting apoptosis of nerve cells” (ARIBIO INC., priority 2012, dated 2018)",
  "origin": "cited, not measured here",
  "system": "B-chronic lymphocytic leukemia cells",
  "details": "Marika Sarfati et al., BLOOD 2003; cited from earlier work",
  "data": [
    {"smiles": "CCCc1nn(C)c2c(=O)[nH]c(-c3cc(S(=O)(=O)N4CCN(C)CC4)ccc3OCC)nc12", "note": "[sildenafil]", "values": [
      {"measurement": "apoptosis of B-chronic lymphocytic leukemia cells", "result": "induce caspase-dependent apoptosis"}
    ]}
  ]
}
